Test results as given in US20250296959A1, “B7-H3 TARGETING PEPTIDES AND CONSTRUCTS THEREOF” (Mariana Oncology Inc., priority 2024, published 2025).
Starred links: 1 amine or outer side, 2 acyl side, 3 side chain; linkers in the order of their positions; H or OH if unused. Positions of bridges follow the written chain, without caps; N, C: chain ends. Non-standard residues stand in square brackets, D forms with d. Residues, ends and D or L forms follow the SMILES beside them. Groups on a side chain read outwards from the residue. *: point of attachment. Ala(1-CH2CO2H-4-piperidyl) = N[C@@H](CC1CCN(CC(=O)O)CC1)C(=O)O; Ala(piperidin-4-yl) = O=C([C@H](CC1CCN([*:3])CC1)N[*:1])[*:2]; DOTA = O=C(O)CN1CCN(CC(=O)O)CCN(CC(=O)*)CCN(CC(=O)O)CC1; Phe(4-COOH) = N[C@@H](Cc1ccc(C(=O)O)cc1)C(=O)O; Trp(5-F) = N[C@@H](Cc1c[nH]c2ccc(F)cc12)C(=O)O; γGlu = O=C(O)[C@H](CCC(=O)[*:2])N[*:1]; Ala(4-THP) = N[C@@H](CC1CCOCC1)C(=O)O; Val(3-OH) = CC(C)(O)[C@H](N)C(=O)O; Trx = NC[C@H]1CC[C@H](C(=O)O)CC1; PEG4 = NCCOCCOCCOCCOCCC(=O)O; Tle = CC(C)(C)[C@H](N)C(=O)O; hLeu = CC(C)CC[C@H](N)C(=O)O; hSer = N[C@@H](CCO)C(=O)O; Nle = CCCC[C@H](N)C(=O)O; Abu = CC[C@H](N)C(=O)O; Dap = NC[C@H](N)C(=O)O

What follows are molecules tested against T1, human 4lg B7-H3 (Homo sapiens, UniProt Q5ZPR3) (assay: Affinity determination by surface plasmon resonance (SPR) to 4Ig B7-H3). Settings: SPR KD—25° C., 4Ig B7-H3; 25° C. flow cell temperature.
T1 sequence (Q5ZPR3 29-534): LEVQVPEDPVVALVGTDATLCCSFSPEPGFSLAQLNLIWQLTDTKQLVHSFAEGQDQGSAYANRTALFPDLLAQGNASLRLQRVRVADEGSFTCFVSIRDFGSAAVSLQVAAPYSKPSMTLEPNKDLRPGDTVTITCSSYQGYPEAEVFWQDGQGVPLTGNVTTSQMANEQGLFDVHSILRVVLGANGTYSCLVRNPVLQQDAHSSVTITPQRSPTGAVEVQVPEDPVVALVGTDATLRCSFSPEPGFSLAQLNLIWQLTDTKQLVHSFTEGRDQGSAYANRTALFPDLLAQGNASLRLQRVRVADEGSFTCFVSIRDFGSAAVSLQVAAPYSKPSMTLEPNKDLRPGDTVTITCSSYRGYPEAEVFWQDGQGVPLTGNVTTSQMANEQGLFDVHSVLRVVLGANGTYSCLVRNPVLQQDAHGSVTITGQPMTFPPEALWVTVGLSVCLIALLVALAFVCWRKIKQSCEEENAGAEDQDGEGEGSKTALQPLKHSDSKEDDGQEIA

Row | Kd | SMILES
1 | 10 to 100 nM | CCCC[C@H](NC(C)=O)C(=O)N[C@@H](Cc1ccc(O)cc1)C(=O)N[C@H]1CSSC[C@@H](C(=O)N[C@@H](Cc2c[nH]c3ccccc23)C(=O)N[C@@H](Cc2ccccc2)C(=O)N[C@H](C(=O)N[C@H](CCCCNC(=O)CN2CCN(CC(=O)O)CCN(CC(=O)O)CCN(CC(=O)O)CC2)C(N)=O)[C@@H](C)O)NC(=O)[C@H](Cc2ccc(O)cc2)NC(=O)[C@H](CC)NC(=O)[C@H](CC(=O)O)NC(=O)[C@H](Cc2ccc(O)cc2)NC(=O)[C@H](CCCCN)NC(=O)CNC(=O)[C@H](C(C)C)NC1=O [compound 96, Ac-Nle-Y-C-V-G-K-Y-D-Abu-Y-C-W-F-Thr-dLys(DOTA)-CONH2] (Ac-[Nle]YCVGKYD[Abu]YCWFT[dK](DOTA)-NH2; disulfide 3-11)
2 | 1 to 10 nM | CCCC[C@@H]1NC(=O)[C@@H](NC(=O)[C@H](Cc2ccc(O)cc2)NC(=O)[C@H](CCC(C)C)NC(C)=O)CSSC[C@@H](C(=O)N[C@@H](Cc2c[nH]c3ccc(F)cc23)C(=O)N[C@@H](Cc2ccccc2)C(=O)N[C@H](C(=O)N[C@H](CCCCNC(=O)CN2CCN(CC(=O)O)CCN(CC(=O)O)CCN(CC(=O)O)CC2)C(N)=O)[C@@H](C)O)NC(=O)[C@H](Cc2ccc(O)cc2)NC(=O)[C@H](C(C)C)NC(=O)[C@H](CC(=O)O)NC(=O)[C@H](Cc2ccc(O)cc2)NC(=O)[C@H](CCCCN)NC(=O)CNC1=O [compound 217, Ac-hLeu-Y-C-Nle-G-K-Y-D-V-Y-C-5FW-F-Thr-dLys(DOTA)-CONH2] (Ac-[hLeu]YC[Nle]GKYDVYC[Trp(5-F)]FT[dK](DOTA)-NH2; disulfide 3-11)
3 | 100 to 300 nM | CC(=O)N[C@@H](CCC(C)C)C(=O)N[C@@H](Cc1ccc(O)cc1)C(=O)N[C@H]1CSSC[C@@H](C(=O)N[C@@H](Cc2c[nH]c3ccc(F)cc23)C(=O)N[C@@H](Cc2ccccc2)C(=O)N2CCC[C@H]2C(=O)O)NC(=O)[C@H](Cc2ccc(O)cc2)NC(=O)[C@H](C(C)C)NC(=O)[C@H](CC(=O)O)NC(=O)[C@H](Cc2ccc(C(=O)O)cc2)NC(=O)[C@H](CCCCNC(=O)CN2CCN(CC(=O)O)CCN(CC(=O)O)CCN(CC(=O)O)CC2)NC(=O)CNC(=O)[C@H](C(C)C)NC1=O [compound 290, Ac-hLeu-Y-C-V-G-Lys(DOTA)-4COOHPhe-D-V-Y-C-5FW-F-Pro-COOH] (Ac-[hLeu]YCVGK(DOTA)[Phe(4-COOH)]DVYC[Trp(5-F)]FP-OH; disulfide 3-11)
4 | 10 to 100 nM | CCCC[C@H](NC(C)=O)C(=O)N[C@@H](Cc1ccc(O)cc1)C(=O)N[C@H]1CSSC[C@@H](C(=O)N[C@@H](Cc2c[nH]c3ccccc23)C(=O)N[C@@H](Cc2ccccc2)C(=O)N[C@H](C(=O)N[C@H](CCCCNC(=O)CN2CCN(CC(=O)O)CCN(CC(=O)O)CCN(CC(=O)O)CC2)C(N)=O)[C@@H](C)O)NC(=O)[C@H](Cc2ccc(O)cc2)NC(=O)[C@H](C(C)C)NC(=O)[C@H](CC(=O)O)NC(=O)[C@H](Cc2ccc(O)cc2)NC(=O)[C@H](CCCCNC(C)=O)NC(=O)CNC(=O)[C@H](C(C)C)NC1=O [compound 65, Ac-Nle-Y-C-V-G-Lys(Ac)-Y-D-V-Y-C-W-F-Thr-dLys(DOTA)-CONH2] (Ac-[Nle]YCVGK(Ac)YDVYCWFT[dK](DOTA)-NH2; disulfide 3-11)
5 | 1 to 10 nM | CC(=O)N[C@@H](CCC(C)C)C(=O)N[C@@H](Cc1ccc(O)cc1)C(=O)N[C@H]1CSSC[C@@H](C(=O)N[C@@H](Cc2c[nH]c3ccc(F)cc23)C(=O)N[C@@H](Cc2ccccc2)C(=O)N2CCC[C@H]2C(=O)N[C@H](CCCCNC(=O)CN2CCN(CC(=O)O)CCN(CC(=O)O)CCN(CC(=O)O)CC2)C(=O)O)NC(=O)[C@H](Cc2ccc(O)cc2)NC(=O)[C@H](C(C)C)NC(=O)[C@H](CC(=O)O)NC(=O)[C@H](CC2CCOCC2)NC(=O)[C@H](CCO)NC(=O)CNC(=O)[C@H](C(C)(C)C)NC1=O [compound 311, Ac-hLeu-Y-C-Tbg-G-hSer-ThpA-D-V-Y-C-5FW-F-Pro-dLys(DOTA)-COOH] (Ac-[hLeu]YC[Tle]G[hSer][Ala(4-THP)]DVYC[Trp(5-F)]FP[dK](DOTA)-OH; disulfide 3-11)

Same assay, conditions: SPR KD—37° C., 4Ig B7-H3; 37° C. flow cell temperature

Row | Kd | SMILES
6 | < 1 nM | CC(=O)N[C@@H](CCC(C)C)C(=O)N[C@@H](Cc1ccc(O)cc1)C(=O)N[C@H]1CSSC[C@@H](C(=O)N[C@@H](Cc2c[nH]c3ccc(F)cc23)C(=O)N[C@@H](Cc2ccccc2)C(=O)N[C@H](C(=O)N[C@H](CCCCNC(=O)CC[C@H](NC(=O)[C@H]2CC[C@H](CNC(=O)CN3CCN(CC(=O)O)CCN(CC(=O)O)CCN(CC(=O)O)CC3)CC2)C(=O)O)C(=O)O)C(C)(C)O)NC(=O)[C@H](Cc2ccc(O)cc2)NC(=O)[C@H](C(C)C)NC(=O)[C@H](CC(=O)O)NC(=O)[C@H](CC2CCOCC2)NC(=O)[C@H](CC2CCNCC2)NC(=O)CNC(=O)[C@H](C(C)(C)C)NC1=O [compound 481, Ac-hLeu-Y-C-Tbg-G-PipAla-ThpA-D-V-Y-C-5FW-F-hydroxyVal-dLys(gE-tranexamate-DOTA)-COOH] (Ac-[hLeu]YC[Tle]G[Ala(piperidin-4-yl)][Ala(4-THP)]DVYC[Trp(5-F)]F[Val(3-OH)][dK]([γGlu-Trx-DOTA])-OH; disulfide 3-11)
7 | 10 to 100 nM | CCCC[C@H](NC(=O)[C@H](Cc1c[nH]c2ccc(F)cc12)NC(=O)[C@@H]1CSSC[C@H](NC(=O)[C@H](Cc2ccc(O)cc2)NC(=O)[C@H](CCC(C)C)NC(C)=O)C(=O)N[C@@H](C(C)(C)C)C(=O)NCC(=O)N[C@@H](CCCCNC(=O)CN2CCN(CC(=O)O)CCN(CC(=O)O)CCN(CC(=O)O)CC2)C(=O)N[C@@H](CC2CCOCC2)C(=O)N[C@@H](CC(=O)O)C(=O)N[C@@H](C(C)C)C(=O)N[C@@H](Cc2ccc(O)cc2)C(=O)N1)C(=O)N[C@H](C(N)=O)C(C)(C)O [compound 336, Ac-hLeu-Y-C-Tbg-G-Lys(DOTA)-ThpA-D-V-Y-C-5FW-Nle-hydroxyVal-CONH2] (Ac-[hLeu]YC[Tle]GK(DOTA)[Ala(4-THP)]DVYC[Trp(5-F)][Nle][Val(3-OH)]-NH2; disulfide 3-11)
8 | < 1 nM | CC(=O)N[C@@H](CCC(C)C)C(=O)N[C@@H](Cc1ccc(O)cc1)C(=O)N[C@H]1CSSC[C@@H](C(=O)N[C@@H](Cc2c[nH]c3ccc(F)cc23)C(=O)N[C@@H](Cc2ccccc2)C(=O)N[C@H](C(=O)N[C@H](C)C(=O)O)C(C)(C)O)NC(=O)[C@H](Cc2ccc(O)cc2)NC(=O)[C@H](C(C)C)NC(=O)[C@H](CC(=O)O)NC(=O)[C@H](CC2CCN(C(=O)CCOCCOCCOCCOCCNC(=O)CN3CCN(CC(=O)O)CCN(CC(=O)O)CCN(CC(=O)O)CC3)CC2)NC(=O)[C@H](CC2CCN(CC(=O)O)CC2)NC(=O)CNC(=O)[C@H](C(C)(C)C)NC1=O [compound 488, Ac-hLeu-Y-C-Tbg-G-Pip(CH2COOH)Ala-Pip(PEG4-DOTA)Ala-D-V-Y-C-5FW-F-hydroxyVal-dAla-COOH] (Ac-[hLeu]YC[Tle]G[Ala(1-CH2CO2H-4-piperidyl)][Ala(piperidin-4-yl)]([PEG4-DOTA])DVYC[Trp(5-F)]F[Val(3-OH)][dA]-OH; disulfide 3-11)
9 | < 1 nM | CC(=O)N[C@@H](CCC(C)C)C(=O)N[C@@H](Cc1ccc(O)cc1)C(=O)N[C@H]1CSSC[C@@H](C(=O)N[C@@H](Cc2c[nH]c3ccc(F)cc23)C(=O)N[C@@H](Cc2ccccc2)C(=O)N[C@H](C(=O)N[C@H](CCC(=O)O)C(N)=O)C(C)(C)O)NC(=O)[C@H](Cc2ccc(O)cc2)NC(=O)[C@H](C(C)C)NC(=O)[C@H](CC(=O)O)NC(=O)[C@H](CC2CCN(C(=O)CN3CCN(CC(=O)O)CCN(CC(=O)O)CCN(CC(=O)O)CC3)CC2)NC(=O)[C@H](CC2CCNCC2)NC(=O)CNC(=O)[C@H](C(C)(C)C)NC1=O [compound 447, Ac-hLeu-Y-C-Tbg-G-PipAla-Pip(DOTA)Ala-D-V-Y-C-5FW-F-hydroxyVal-dGlu-CONH2] (Ac-[hLeu]YC[Tle]G[Ala(piperidin-4-yl)][Ala(piperidin-4-yl)](DOTA)DVYC[Trp(5-F)]F[Val(3-OH)][dE]-NH2; disulfide 3-11)
10 | < 1 nM | CC(=O)N[C@@H](CCC(C)C)C(=O)N[C@@H](Cc1ccc(O)cc1)C(=O)N[C@H]1CSSC[C@@H](C(=O)N[C@@H](Cc2c[nH]c3ccc(F)cc23)C(=O)N[C@@H](Cc2ccccc2)C(=O)N[C@H](C(=O)N[C@H](CCC(=O)O)C(N)=O)C(C)(C)O)NC(=O)[C@H](Cc2ccc(O)cc2)NC(=O)[C@H](C(C)C)NC(=O)[C@H](CC(=O)O)NC(=O)[C@H](CC2CCN(C(=O)CC[C@H](NC(=O)CN3CCN(CC(=O)O)CCN(CC(=O)O)CCN(CC(=O)O)CC3)C(=O)O)CC2)NC(=O)[C@H](CC2CCNCC2)NC(=O)CNC(=O)[C@H](C(C)(C)C)NC1=O [compound 459, Ac-hLeu-Y-C-Tbg-G-PipAla-Pip(gE-DOTA)Ala-D-V-Y-C-5FW-F-hydroxyVal-dGlu-CONH2] (Ac-[hLeu]YC[Tle]G[Ala(piperidin-4-yl)][Ala(piperidin-4-yl)]([γGlu-DOTA])DVYC[Trp(5-F)]F[Val(3-OH)][dE]-NH2; disulfide 3-11)
11 | < 1 nM | CC(=O)N[C@@H](CCC(C)C)C(=O)N[C@@H](Cc1ccc(O)cc1)C(=O)N[C@H]1CSSC[C@@H](C(=O)N[C@@H](Cc2c[nH]c3ccc(F)cc23)C(=O)N[C@@H](Cc2ccccc2)C(=O)N[C@H](C(=O)N[C@H](CCCCNC(=O)CN2CCN(CC(=O)O)CCN(CC(=O)O)CCN(CC(=O)O)CC2)C(=O)O)C(C)(C)O)NC(=O)[C@H](Cc2ccc(O)cc2)NC(=O)[C@H](C(C)C)NC(=O)[C@H](CC(=O)O)NC(=O)[C@H](CC2CCOCC2)NC(=O)[C@H](CN)NC(=O)CNC(=O)[C@H](C(C)(C)C)NC1=O [compound 372, Ac-hLeu-Y-C-Tbg-G-Dap-ThpA-D-V-Y-C-5FW-F-hydroxyVal-dLys(DOTA)-COOH] (Ac-[hLeu]YC[Tle]G[Dap][Ala(4-THP)]DVYC[Trp(5-F)]F[Val(3-OH)][dK](DOTA)-OH; disulfide 3-11)
